The target in assay [1] is T1, EGFR-viii (Homo sapiens, UniProt P00533, DELINS30-297G).
T1 construct: expressed in transfected cells; host or cells: U87MG (ATCC), lentiviral infection, puromycin selection
Nature of the assay: PhosphoY1173-EGFR-viii in-cell ELISA in U87MG tumor cells engineered to express EGFR-viii. In kind it is cell-based. To be noted: U87MG tumor cells expressing EGFR-viii; for activity against EGFR-viii: in words.
Method: Data are expressed as EC50 and were determined using an in-cell ELISA kit (Pierce).

For assay [2], the system named is tumors expressing EGFR-viii. To be noted: clinical studies (Vivanco 2012, Reardon 2014); cited from earlier work.

The values that follow come from patent US20180117053A1, “The Method of Use for Inhibitors of Epidermal Growth Factor Receptor Variants II, III and VI” (Metastat, Inc., priority 2015, published 2018).

The EC50 is the midpoint of the concentration-response curve.

For `C=CC(=O)Nc1ccc2ncnc(Nc3ccc(OCc4cccc(F)c4)c(Cl)c3)c2c1` [AST-1306], in assay [1], the “potency against EGFR-viii relative to WZ4002, WZ8040, WZ3146, CO-1686 and AZD9291” value is “at least ten-fold more potent”. Moreover, in assay [1] (in-cell ELISA, read-out: EC50 against EGFR-viii (phosphoY1173-EGFRviii)), the EC50 was under 50 nM.

For the compound `C=CC(=O)Nc1cccc(Nc2nc(Nc3ccc(N4CCN(C(C)=O)CC4)cc3OC)ncc2C(F)(F)F)c1` [CO-1686], the “activity against EGFR-viii” value in assay [1] (in-cell ELISA) is given as “weak activity”.

Regarding `CS(=O)(=O)CCNCc1ccc(-c2ccc3ncnc(Nc4ccc(OCc5cccc(F)c5)c(Cl)c4)c3c2)o1` [Lapatinib, lapatinib], the “cancer growth inhibition in clinical studies” value in assay [2] was “insignificant cancer growth inhibition”.

As to `C=CC(=O)Nc1cccc(Oc2nc(Nc3ccc(N4CCN(C)CC4)cc3)ncc2Cl)c1` [WZ3146], the “activity against EGFR-viii” value in assay [1] (in-cell ELISA) is reported as “weak activity”.

Take `C=CC(=O)Nc1cccc(Sc2nc(Nc3ccc(N4CCN(C)CC4)cc3)ncc2Cl)c1` [WZ8040]: the “activity against EGFR-viii” value in assay [1] (in-cell ELISA) is “weak activity”.
